In the NIST ThermoML archive (doi:10.1016/j.tca.2016.08.003):
Numbers after ± are expanded uncertainties.

assay: Molar enthalpy of transition or fusion; details: Crystal; DSC

Compound | Molar enthalpy of transition or fusion
O=[N+]([O-])[O-].[K+] [potassium nitrate] | 2.49 ± 0.0717 kcal/mol
O=[N+]([O-])[O-].[Na+] [sodium nitrate] | 3.7 ± 0.0813 kcal/mol
O=[N+]([O-])[O-].[Rb+] [rubidium nitrate] | 1.17 ± 0.0741 kcal/mol

assay: not given; details: Crystal; DTA

Compound | Normal melting temperature
O=[N+]([O-])[O-].[K+] [potassium nitrate] | 333.80 ± 1.1 °C
O=[N+]([O-])[O-].[Na+] [sodium nitrate] | 305.90 ± 0.6 °C
O=[N+]([O-])[O-].[Rb+] [rubidium nitrate] | 309.50 ± 2 °C
